What all share (type): physicochemical
Data set [1] is described as follows: Dynamic vapor sorption (DVS) hygroscopicity. The following applies: for Hygroscopicity / water uptake (DVS): 25° C., 5 to 95% RH. Here is the method:
DVS analysis was carried out using a TA Instruments Q5000 Dynamic Vapor Sorption analyzer. The instrument was calibrated with standard weights and a sodium bromide standard for humidity. Approximately 10-25 mg of sample was loaded into a metalcoated quartz pan for analysis. The sample was analyzed at 25° C. with a maximum equilibration time of one hour in 10% relative humidity (RH) steps from 5 to 95% RH (adsorption cycle) and from 95 to 5% RH (desorption cycle). The movement from one step to the next occurred either after satisfying the equilibrium criterion of 0.01% weight change or, if the equilibrium criterion was not met, after one hour. The percent weight change values were calculated using Microsoft Excel®.

Data set [2] is described as follows: Competitive slurry (interconversion) experiments, solid form by XRPD. The following applies: all competitive slurry conditions tested. Here is the method: Solutions (˜2 mL) were saturated with Form A of Compound 1. Once saturated, they were centrifuged and the mother liquors were transferred to HPLC vials containing equal amounts (approximately 10 mg each) of Forms A, C, D, and E. The samples were then stirred magnetically at a specified temperature for 3 days. Solids were collected by vacuum filtration.

Data set [3] is described as follows: Kinetic solubility in water at 37° C. Here is the method: (§1) In SGF, concentrations were below 1 μg/mL up until 6 hours. The resulting solid was form A. In water, a concentration of 0.3 mg/mL was achieved within 2 minutes and concentration after 6 hours was about 0.5 mg/mL.
(§2) In SGF, concentrations were below 1 μg/mL up until 6 hours. The resulting solid was non-crystalline by XRPD. In water, a concentration of 2.3 mg/mL was achieved within 2 minutes and concentration after 6 hours was about 3.1 mg/mL.

Data set [4] in a line: Kinetic solubility in simulated gastric fluid (SGF). The following applies: for Concentrations in SGF up until 6 hours: SGF pH about 1.2, all time points up until 6 hours; for Resulting solid after kinetic solubility in SGF (XRPD): SGF pH about 1.2; for Concentration in SFG: SGF pH about 1.2, 37° C. The procedure: as §1, §2
A short description of data set [5]: Equilibrium aqueous solubility in water at ambient temperature. The procedure: Equilibrium solubility of Compound 1 and 1-A was measured in water at ambient temperature. A known volume of water was placed in a 1-dram glass vial and weight aliquots of Compound 1 or Compound 1-A were added while magnetically stirring at room temperature. If the solid dissolved, another aliquot of […] was added.

This is an account of results in US20250034183A1, “POLYMORPHIC FORMS AND METHODS OF PRODUCING POLYMORPHIC FORMS OF A COMPOUND” (Viking Therapeutics, Inc., priority 2022, published 2025).

Each structure is given as a SMILES string. Where “and” joins values, the source holds several entries; their conditions need not be identical. Identical values can stand only once. Entries after “also recorded” stand apart in the source; their conditions may differ. Counter-ions that a name gives are not always drawn.

Regarding `Cc1cc(OCP(=O)(O)O)cc(C)c1Cc1ccc(O)c(Cc2ccccc2)c1` [Crystalline Form 2], in data set [1] (listed as Crystal Form 2), the “Hygroscopicity / water uptake (DVS)” value is on record as “moderately hygroscopic”.
Turning to `Cc1cc(OCP(=O)(O)O)cc(C)c1Cc1ccc(O)c(Cc2ccccc2)c1` [Crystalline Form A], the “Relative stability of crystal forms” value in data set [2] is recorded as “most stable form”. Also, in data set [1], the Stability over humidity result is on record as “stable over a wide range of humidity” and the “Hygroscopicity / water uptake (DVS)” value was “moderately hygroscopic; also recorded: moderate water uptake”.
`Cc1cc(OCP(=O)(O)O)cc(C)c1Cc1ccc(O)c(Cc2ccccc2)c1` [Crystalline Form 1]: the “Resulting solid after kinetic solubility in water” value in data set [3] is listed as “crystalline Form 3”. The Concentration in water in data set [3] (2 min, listed as Compound 1-A (Form 1)) is 2300 µg/mL; in data set [3] (360 min (6 hours), listed as Compound 1-A (Form 1)), “about 3.1 mg/mL”. For the same compound, the “Concentrations in SGF up until 6 hours” value in data set [4] is “below 1 μg/mL”. Also, the “Resulting solid after kinetic solubility in SGF (XRPD)” value in data set [4] (listed as Compound 1-A (Form 1)) was “non-crystalline”.
On to `Cc1cc(OCP(=O)(O)O)cc(C)c1Cc1ccc(O)c(Cc2ccccc2)c1` [Compound 1], for which the Concentration in water was 300 µg/mL and 290 µg/mL in data set [3] (2 min); 330 µg/mL in data set [3] (5 min); 300 µg/mL in data set [3] (10 min); 290 µg/mL in data set [3] (30 min); 400 µg/mL in data set [3] (60 min); 410 µg/mL in data set [3] (120 min). In data set [3] (240 min), this compound returned a Concentration in water of 390 µg/mL. Besides, the “Resulting solid after kinetic solubility in SGF (XRPD)” value in data set [4] is reported as “form A”. For the same compound, the “Concentration in SFG” value in data set [4] (2 min) was 0.4 µg/mL; in data set [4] (5 min) it was 0.18 µg/mL; in data set [4] (10 min), 0.11 µg/mL; in data set [4] (30 min), 0.1 µg/mL; in data set [4] (60 min), 0.07 µg/mL; in data set [4] (120 min) it was 0.37 µg/mL. The “Concentration in SFG” value was 0.15 µg/mL in data set [4] (240 min) and 0.1 µg/mL in data set [4] (360 min). In data set [4], the “Concentrations in SGF up until 6 hours” value is “below 1 μg/mL”. Besides, the “Concentration at 4 hours” value in data set [5] was found to be 300 µg/mL. In addition, the “Concentration at 24 hours” value in data set [5] amounted to 320 µg/mL. Moreover, the “Concentration at 48 hours” value in data set [5] came out at 320 µg/mL.
For the compound `Cc1cc(OCP(=O)(O)O)cc(C)c1Cc1ccc(O)c(Cc2ccccc2)c1` [Crystalline Form 3], in data set [1], the “Hygroscopicity / water uptake (DVS)” value was “slight water uptake”.
Consider `Cc1cc(OCP(=O)(O)O)cc(C)c1Cc1ccc(O)c(Cc2ccccc2)c1` [Compound 1-A, (2-dimethylamino)ethanol (“deanol”) salt of Compound 1], for which the Concentration in water came out at 2250 µg/mL in data set [3] (2 min); 2660 µg/mL in data set [3] (5 min); 2980 µg/mL in data set [3] (10 min); 3070 µg/mL in data set [3] (30 min); 3140 µg/mL in data set [3] (60 min); 2280 µg/mL in data set [3] (120 min). The Concentration in water in data set [3] (240 min) is 2870 µg/mL; in data set [3] (360 min (6 hours)), 3070 µg/mL. Further, the “Concentration in SFG” value in data set [4] (2 min) was 0.35 µg/mL; in data set [4] (5 min) it was 0.17 µg/mL; in data set [4] (10 min), 0.11 µg/mL; in data set [4] (30 min), 0.08 µg/mL; in data set [4] (60 min), 0.05 µg/mL; in data set [4] (120 min), 0.28 µg/mL. Also, the figures for the “Concentration in SFG” value in data set [4] (240 min) and in data set [4] (360 min) were 0.21 µg/mL and 0.07 µg/mL, respectively. In addition, the “Concentration at 4 hours” value in data set [5] was determined as 1450 µg/mL. Besides, the “Concentration at 24 hours” value in data set [5] is 1430 µg/mL. The “Concentration at 48 hours” value in data set [5] stood at 1420 µg/mL.
